Source: EP4562004B1, “NOVEL 7-SUBSTITUTED INDOLE SULFONAMIDE DERIVATIVES” (F. Hoffmann-La Roche AG, priority 2022, dated 2024)

Biological target: human GPR17 short isoform (Homo sapiens, UniProt Q13304)
Assay: GPR17 cAMP assay (antagonist mode, TR-FRET cAMP detection)
Type: cell-based
Settings: CHO-K1 cells stably expressing human GPR17 short isoform; with EC80 concentration of agonist MDL29,951, IBMX 0.5mM, forskolin 15µM; normalized to reference antagonist; read-out: hGPR17 cAMP IC50
Experimental: CHO-K1 cells stably expressing vector containing untagged human GPR17 short isoform (Roche) were cultured at 37°C / 5% CO2 in DMEM (Dulbecco's Modified Eagle Medium):F-12 (1:1) supplemented with 10% foetal bovine serum and 400 µg/ml Geneticin.
Changes in intracellular cyclic adenosine monophosphate (cAMP) levels were quantified using the Nano-TRF Detection Assay kit (Roche Diagnostics, Cat. No. 05214386001). This assay allows for direct cAMP quantification in a homogeneous solution. cAMP is detected based on time-resolved fluorescence energy transfer (TR-FRET) and competitive binding of ruthenylated cAMP and endogenous cAMP to an anti-cAMP monoclonal antibody labeled with AlexaFluor-700. The Ruthenium complex serves as the FRET donor and transfers energy to AlexaFluor-700. The FRET signal is inversely proportional to the cAMP concentration.
CHO-GPR17S cells were detached with Accutase and resuspended in assay buffer consisting of Hank's Balanced Salt Solution (HBSS), 10mM HEPES (4-(2-hydroxyethyl) piperazine-1-ethanesulfonic acid solution) and 0.1% bovine serum albumin (pH 7.4). The cells were seeded in black 384-well plates (Corning) at a density of 10'000 cells / 20µl assay buffer until the addition of compounds.
Test antagonist compounds were serially diluted in dimethyl sulfoxide (DMSO) and spotted in 384-well plates. The compounds were then diluted in HBSS buffer supplemented with an EC80 concentration of MDL29,951 (3-(2-Carboxy-4,6-dichloroindol-3-yl)propionic acid) (GPR17 agonist) plus 3-Isobutyl-1-methylxanthine (IBMX) (0.5mM final concentration) and added to the cells at room temperature. Forskolin (15µM final concentration) was added 5 minutes after the test compounds and the cells were incubated at room temperature for 30 minutes. The assay was stopped by adding cAMP detection mix (containing detergents for cell lysis) for 90 minutes at room temperature.
Cellular cAMP was measured using a Paradigm reader (Molecular Devices). The raw data was used to calculate the FRET signal based on the assay's P-factor as per cAMP kit instructions. The data was normalized to the maximal activity of a reference antagonist and dose response curves were fitted to the percent activity of the test compounds using a sigmoidal dose response model (Genedata Screener).
Results in the hGPR17 cAMP assay are provided for compounds of formula I in Table 1 Table 1: […]

Sequence of human GPR17 short isoform (Q13304 29-367): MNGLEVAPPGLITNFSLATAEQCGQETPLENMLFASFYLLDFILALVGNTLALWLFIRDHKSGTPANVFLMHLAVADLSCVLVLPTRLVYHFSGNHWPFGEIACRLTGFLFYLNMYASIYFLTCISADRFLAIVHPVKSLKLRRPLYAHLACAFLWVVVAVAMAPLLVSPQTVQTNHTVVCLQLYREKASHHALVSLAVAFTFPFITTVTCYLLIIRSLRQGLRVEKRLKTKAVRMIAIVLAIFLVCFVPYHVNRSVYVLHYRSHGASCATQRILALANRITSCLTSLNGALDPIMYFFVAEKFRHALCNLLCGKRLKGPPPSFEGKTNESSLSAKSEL

SMILES	IC50
COc1nc(NS(=O)(=O)c2c[nH]c3c(-n4ccc(F)n4)c(Cl)ccc23)nc(OC)c1OC(F)F [Example 54, 6-chloro-N-[5-(difluoromethoxy)-4,6-dimethoxy-pyrimidin-2-yl]-7-(3-fluoropyrazol-1-yl)-1H-indole-3-sulfonamide]	27 nM
COc1nc(NS(=O)(=O)c2c[nH]c3c(-n4ccc(F)n4)c(Cl)ccc23)nc(OC)c1CC(F)F [Example 55, 6-chloro-N-[5-(2,2-difluoroethyl)-4,6-dimethoxy-pyrimidin-2-yl]-7-(3-fluoropyrazol-1-yl)-1H-indole-3-sulfonamide]	25 nM
COc1nc(NS(=O)(=O)c2c[nH]c3c(-n4ccc(F)n4)c(Cl)ccc23)nc(OC)c1OCCF [Example 56, 6-chloro-N-[5-(2-fluoroethoxy)-4,6-dimethoxy-pyrimidin-2-yl]-7-(3-fluoropyrazol-1-yl)-1H-indole-3-sulfonamide]	49 nM
COc1nc(NS(=O)(=O)c2c[nH]c3c(-n4nccn4)c(Cl)ccc23)nc(OC)c1OC(F)(F)CF [Example 57, 6-chloro-N-[4,6-dimethoxy-5-(1,1,2-trifluoroethoxy)pyrimidin-2-yl]-7-(triazol-2-yl)-1H-indole-3-sulfonamide]	85 nM
COc1nc(NS(=O)(=O)c2c[nH]c3c(-n4nccn4)c(Cl)ccc23)nc(OC)c1OC(C)(C)CF [Example 58, 6-chloro-N-[5-(2-fluoro-1,1-dimethyl-ethoxy)-4,6-dimethoxy-pyrimidin-2-yl]-7-(triazol-2-yl)-1H-indole-3-sulfonamide]	1270 nM
[2H]C([2H])(Oc1c(OC)nc(NS(=O)(=O)c2c[nH]c3c(-n4nccn4)c(Cl)ccc23)nc1OC)C(F)F [Example 59, 6-chloro-N-[5-(1,1-dideuterio-2,2-difluoro-ethoxy)-4,6-dimethoxy-pyrimidin-2-yl]-7-(triazol-2-yl)-1H-indole-3-sulfonamide]	74 nM
COc1nc(NS(=O)(=O)c2c[nH]c3c(-n4nccn4)c(Cl)ccc23)nc(OC)c1OCC#N [Example 60, 6-chloro-N-[5-(cyanomethoxy)-4,6-dimethoxy-pyrimidin-2-yl]-7-(triazol-2-yl)-1H-indole-3-sulfonamide]	49 nM
COc1nc(NS(=O)(=O)c2c[nH]c3c(-n4nccn4)c(Cl)ccc23)nc(OC)c1CCC#N [Example 61, 6-chloro-N-[5-(2-cyanoethyl)-4,6-dimethoxy-pyrimidin-2-yl]-7-(triazol-2-yl)-1H-indole-3-sulfonamide]	29 nM
COc1nc(NS(=O)(=O)c2c[nH]c3c(-n4nccn4)c(Cl)ccc23)nc(OC)c1C [Example 62, 6-chloro-N-(4,6-dimethoxy-5-methyl-pyrimidin-2-yl)-7-(triazol-2-yl)-1H-indole-3-sulfonamide]	19 nM
COc1nc(NS(=O)(=O)c2c[nH]c3c(-n4nccn4)c(Cl)ccc23)nc(OC)c1Br [Example 63, N-(5-bromo-4,6-dimethoxy-pyrimidin-2-yl)-6-chloro-7-(triazol-2-yl)-1H-indole-3-sulfonamide]	37 nM
COc1nc(NS(=O)(=O)c2c[nH]c3c(-n4nccn4)c(Cl)c(F)cc23)nc(OC)c1OCC(F)F [Example 64, 6-chloro-N-[5-(2,2-difluoroethoxy)-4,6-dimethoxy-pyrimidin-2-yl]-5-fluoro-7-(triazol-2-yl)-1H-indole-3-sulfonamide]	75 nM
COc1nc(NS(=O)(=O)c2c[nH]c3c(-n4cccn4)c(Cl)ccc23)nc(OC)c1OCC(F)F [Example 65, 6-chloro-N-[5-(2,2-difluoroethoxy)-4,6-dimethoxy-pyrimidin-2-yl]-7-pyrazol-1-yl-1H-indole-3-sulfonamide]	22 nM
COc1nc(NS(=O)(=O)c2c[nH]c3c(-n4cccn4)c(Cl)ccc23)nc(OC)c1OC(F)F [Example 66, 6-chloro-N-[5-(difluoromethoxy)-4,6-dimethoxy-pyrimidin-2-yl]-7-pyrazol-1-yl-1H-indole-3-sulfonamide]	21 nM
COc1nc(NS(=O)(=O)c2c[nH]c3c(-n4cccn4)c(Cl)ccc23)nc(OC)c1OCCF [Example 67, 6-chloro-N-[5-(2-fluoroethoxy)-4,6-dimethoxy-pyrimidin-2-yl]-7-pyrazol-1-yl-1H-indole-3-sulfonamide]	31 nM
[2H]C([2H])(F)C([2H])([2H])Oc1c(OC)nc(NS(=O)(=O)c2c[nH]c3c(-n4cccn4)c(Cl)ccc23)nc1OC [Example 68, 6-chloro-N-[4,6-dimethoxy-5-(1,1,2,2-tetradeuterio-2-fluoro-ethoxy)pyrimidin-2-yl]-7-pyrazol-1-yl-1H-indole-3-sulfonamide]	36 nM
COc1nc(NS(=O)(=O)c2c[nH]c3c(-n4cccn4)c(Cl)ccc23)nc(OC)c1OCC#N [Example 69, 6-chloro-N-[5-(cyanomethoxy)-4,6-dimethoxy-pyrimidin-2-yl]-7-pyrazol-1-yl-1H-indole-3-sulfonamide]	52 nM
COc1nc(NS(=O)(=O)c2c[nH]c3c(-n4cccn4)c(Cl)ccc23)nc(OC)c1CCC#N [Example 70, 6-chloro-N-[5-(2-cyanoethyl)-4,6-dimethoxy-pyrimidin-2-yl]-7-pyrazol-1-yl-1H-indole-3-sulfonamide]	37 nM
COc1nc(NS(=O)(=O)c2c[nH]c3c(-n4cccn4)c(Cl)ccc23)ncc1CC(F)F [Example 71, 6-chloro-N-[5-(2,2-difluoroethyl)-4-methoxy-pyrimidin-2-yl]-7-pyrazol-1-yl-1H-indole-3-sulfonamide]	63 nM
[2H]C([2H])(c1cnc(NS(=O)(=O)c2c[nH]c3c(-n4cccn4)c(Cl)ccc23)nc1OC)C(F)F [Example 72, 6-chloro-N-[5-(1,1-dideuterio-2,2-difluoroethyl)-4-methoxy-pyrimidin-2-yl]-7-pyrazol-1-yl-1H-indole-3-sulfonamide]	41 nM
COc1nc(NS(=O)(=O)c2c[nH]c3c(-n4cccn4)c(Cl)ccc23)nc(OC)c1C1CC1C#N (stereo not shown) [Example 73, 6-chloro-N-[5-(2-cyanocyclopropyl)-4,6-dimethoxy-pyrimidin-2-yl]-7-pyrazol-1-yl-1H-indole-3-sulfonamide]	41 nM
COc1nc(NS(=O)(=O)c2c[nH]c3c(-n4cccn4)c(C)ccc23)nc(OC)c1OCC(F)F [Example 74, N-[5-(2,2-difluoroethoxy)-4,6-dimethoxy-pyrimidin-2-yl]-6-methyl-7-pyrazol-1-yl-1H-indole-3-sulfonamide]	59 nM
COc1nc(NS(=O)(=O)c2c[nH]c3c(-n4cccn4)c(Br)ccc23)nc(OC)c1OCC(F)F [Example 75, 6-bromo-N-[5-(2,2-difluoroethoxy)-4,6-dimethoxy-pyrimidin-2-yl]-7-pyrazol-1-yl-1H-indole-3-sulfonamide]	42 nM
COc1nc(NS(=O)(=O)c2c[nH]c3c(-n4cccn4)c(C)ccc23)nc(OC)c1OC(F)F [Example 76, N-[5-(difluoromethoxy)-4,6-dimethoxy-pyrimidin-2-yl]-6-methyl-7-pyrazol-1-yl-1H-indole-3-sulfonamide]	75 nM
COc1nc(NS(=O)(=O)c2c[nH]c3c(-n4cccn4)c(Br)ccc23)nc(OC)c1OC(F)F [Example 77, 6-bromo-N-[5-(difluoromethoxy)-4,6-dimethoxy-pyrimidin-2-yl]-7-pyrazol-1-yl-1H-indole-3-sulfonamide]	27 nM
COc1nc(NS(=O)(=O)c2c[nH]c3c(-n4nccn4)c(Cl)ccc23)ncc1CC(F)F [Example 78, 6-chloro-N-[5-(2,2-difluoroethyl)-4-methoxy-pyrimidin-2-yl]-7-(triazol-2-yl)-1H-indole-3-sulfonamide]	55 nM
[2H]C([2H])(c1cnc(NS(=O)(=O)c2c[nH]c3c(-n4nccn4)c(Cl)ccc23)nc1OC)C(F)F [Example 79, 6-chloro-N-[5-(1,1-dideuterio-2,2-difluoroethyl)-4-methoxy-pyrimidin-2-yl]-7-(triazol-2-yl)-1H-indole-3-sulfonamide]	36 nM
COc1nc(NS(=O)(=O)c2c[nH]c3c(-n4cccn4)c(C)ccc23)nc(OC)c1CC(F)F [Example 80, N-[5-(2,2-difluoroethyl)-4,6-dimethoxy-pyrimidin-2-yl]-6-methyl-7-pyrazol-1-yl-1H-indole-3-sulfonamide]	29 nM
COc1nc(NS(=O)(=O)c2c[nH]c3c(-n4cccn4)c(Br)ccc23)nc(OC)c1CC(F)F [Example 81, 6-bromo-N-[5-(2,2-difluoroethyl)-4,6-dimethoxy-pyrimidin-2-yl]-7-pyrazol-1-yl-1H-indole-3-sulfonamide]	18 nM
